From paper PMC7944240 (Anesthesiology, 2020)

Experiments:
[1] = system: zebrafish larvae; experiment: Zebrafish larvae photomotor response; format: in vivo, Danio rerio; details: for EC50: Danio rerio, read-out: EC50 for abolishing zebrafish larvae motor responses to a light stimulus
[2] = target: T1, α1β3γ2L GABAA receptors (Homo sapiens, UniProt P14867+P18507+P28472); format: cell-based
[3] = target: T1, α1β3γ2L GABAA receptors; format: cell-based; remark: listed apart in the source
[4] = system: GABAA receptor; details: cited from earlier work
[5] = target: T1, α1β3γ2L GABAA receptors; format: cell-based; details: for IC50: IC50 for antagonizing direct activation by 20 μM etomidate in the presence of flumazenil, [Benzodiazepine]:[Flumazenil] = 1:2
[6] = target: purified α1β3γ2L GABAA receptors (Homo sapiens, UniProt P14867+P18507+P28472); experiment: Inhibition of R-[3H]azietomidate photoaffinity labeling of purified receptors; details: at up to 300 μM
purified α1β3γ2L GABAA receptors, sequence (P14867 28-456): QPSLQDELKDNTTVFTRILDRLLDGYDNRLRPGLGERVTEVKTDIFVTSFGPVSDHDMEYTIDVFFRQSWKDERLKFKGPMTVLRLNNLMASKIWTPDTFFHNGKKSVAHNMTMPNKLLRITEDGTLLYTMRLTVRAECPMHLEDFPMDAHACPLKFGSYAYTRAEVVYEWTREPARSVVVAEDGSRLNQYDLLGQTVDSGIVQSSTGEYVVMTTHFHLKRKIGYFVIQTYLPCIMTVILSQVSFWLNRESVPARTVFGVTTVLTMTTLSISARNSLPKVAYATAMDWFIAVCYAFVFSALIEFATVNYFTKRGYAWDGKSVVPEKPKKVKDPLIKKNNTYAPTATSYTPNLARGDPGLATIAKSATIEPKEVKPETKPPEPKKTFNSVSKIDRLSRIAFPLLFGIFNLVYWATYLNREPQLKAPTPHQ
purified α1β3γ2L GABAA receptors, sequence (P28472 26-473): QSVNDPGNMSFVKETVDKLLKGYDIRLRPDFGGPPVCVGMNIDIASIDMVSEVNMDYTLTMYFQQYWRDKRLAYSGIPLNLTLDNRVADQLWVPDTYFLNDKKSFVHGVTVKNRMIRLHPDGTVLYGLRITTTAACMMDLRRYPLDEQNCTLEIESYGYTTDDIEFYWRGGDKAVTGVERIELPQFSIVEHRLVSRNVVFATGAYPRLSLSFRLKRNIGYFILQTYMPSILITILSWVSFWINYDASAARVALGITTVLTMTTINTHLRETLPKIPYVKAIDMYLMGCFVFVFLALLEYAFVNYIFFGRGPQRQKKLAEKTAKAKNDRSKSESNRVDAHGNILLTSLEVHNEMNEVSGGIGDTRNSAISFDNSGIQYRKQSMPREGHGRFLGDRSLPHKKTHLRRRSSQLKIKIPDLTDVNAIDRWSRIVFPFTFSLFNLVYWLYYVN
purified α1β3γ2L GABAA receptors, sequence (P18507 40-475): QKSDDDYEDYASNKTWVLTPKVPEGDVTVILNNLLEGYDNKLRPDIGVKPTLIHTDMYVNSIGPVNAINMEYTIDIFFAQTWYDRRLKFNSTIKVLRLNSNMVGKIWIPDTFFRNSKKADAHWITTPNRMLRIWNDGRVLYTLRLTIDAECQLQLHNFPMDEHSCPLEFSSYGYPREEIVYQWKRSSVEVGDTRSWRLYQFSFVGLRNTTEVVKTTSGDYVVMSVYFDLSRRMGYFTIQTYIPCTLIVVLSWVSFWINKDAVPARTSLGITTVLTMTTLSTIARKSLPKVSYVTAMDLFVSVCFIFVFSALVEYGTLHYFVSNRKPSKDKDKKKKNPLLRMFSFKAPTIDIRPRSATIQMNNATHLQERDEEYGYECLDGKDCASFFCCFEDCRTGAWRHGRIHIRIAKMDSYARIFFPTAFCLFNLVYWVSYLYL

[7] = system: purified GABAA receptors; details: cited from earlier work

T1 sequence (P14867 28-456): as the sequence (P14867 28-456) above
T1 sequence (P28472 26-473): as the sequence (P28472 26-473) above
T1 sequence (P18507 40-475): as the sequence (P18507 40-475) above

In the case of `CN1C(=O)CN=C(c2ccccc2)c2cc(Cl)ccc21` [Diazepam], the “effect on zebrafish larvae motor responses to light stimulus” value ([1]; 50 μM, alone, no flumazenil) is reported as “essentially abolishes”, the Schild slope ([2]; against etomidate direct activation, flumazenil present (1:4)) is reported as 1.1 and the “reduction of GABA-activated peak current amplitudes at micromolar concentrations” value ([3]; 6 μM GABA) is reported as “did not see a similar reduction”. For the same molecule, the “potentiation of currents activated by low concentrations of GABA via the etomidate binding site” value [4] was “no more than two- to threefold”.

For `Clc1ccc2c(c1)C(c1ccccc1)=NCc1nncn1-2` [Estazolam], the IC50 [5] was 59 µM.

For `CN1C(=O)CN=C(c2ccccc2F)c2cc(Cl)ccc21` [Fludiazepam], the IC50 [5] was 390 µM and the “etomidate inhibitory potency, fold lower than diazepam” value ([5]; relative to diazepam) was 30 ×.

With `CCOC(=O)c1ncn2c1CN(C)C(=O)c1cc(F)ccc1-2` [Flumazenil] the “effect on R-[3H]azietomidate photo-incorporation” value [6] was “little inhibitory effect”, the “impact on etomidate-activated currents in the absence of diazepam” value ([5]; data not shown) was “no impact” and the “impact on GABA-activated currents in the absence of diazepam” value ([3]; data not shown) was “no impact”.

For `O=C1Nc2ccc(Cl)cc2C(c2ccccc2Cl)=NC1O` (stereo not drawn) [Lorazepam], the IC50 [5] was ≥ 1000 µM.

For `CN1CCN=C(c2ccccc2)c2cc(Cl)ccc21` [Medazepam], the IC50 [5] was ≥ 1000 µM.

In the case of `Cc1ncc2n1-c1ccc(Cl)cc1C(c1ccccc1F)=NC2` [Midazolam], the IC50 [5] is reported as 560 µM.

`O=C1CN=C(c2ccccc2)c2cc([N+](=O)[O-])ccc2N1` [Nitrazepam] gave an IC50 [5] of 130 µM.

Molecule `O=C1CN=C(c2ccccc2)c2cc(Cl)ccc2N1` [Nordiazepam] has an IC50 [5] of 32 µM.

For `CCOC(=O)c1cncn1[C@H](C)c1ccccc1` [etomidate], the EC50 [1] is given as 0.66 µM, the “Hill slope of etomidate concentration-response curve” value ([2]; Schild analysis) is given as 2.1 and the “potentiation of currents activated by low concentrations of GABA” value ([4]; high concentrations) is given as “more than an order of magnitude”.

For `CN1C(=O)CN=C(c2ccccc2F)c2cc([N+](=O)[O-])ccc21` [flunitrazepam], the “reduction in apparent affinity with purified GABAA receptors” value [7] is given as “sevenfold”.

In the case of `CNC1(c2ccccc2Cl)CCCCC1=O` (stereo not drawn) [ketamine], the EC50 [1] is reported as 170 µM and the “fold leftward shift of anesthetic concentration-response curve” value ([1]; by 50 μM diazepam plus 200 μM flumazenil) is reported as 19 fold.
